Biological target: T1, Rhesus PDE2A3 (Macaca mulatta, UniProt B3VTJ2)
T1 construct: made in house; host or cells: AD293 cells, transient transfection; supernatant of sonicated lysate
T1 sequence (B3VTJ2 1-941): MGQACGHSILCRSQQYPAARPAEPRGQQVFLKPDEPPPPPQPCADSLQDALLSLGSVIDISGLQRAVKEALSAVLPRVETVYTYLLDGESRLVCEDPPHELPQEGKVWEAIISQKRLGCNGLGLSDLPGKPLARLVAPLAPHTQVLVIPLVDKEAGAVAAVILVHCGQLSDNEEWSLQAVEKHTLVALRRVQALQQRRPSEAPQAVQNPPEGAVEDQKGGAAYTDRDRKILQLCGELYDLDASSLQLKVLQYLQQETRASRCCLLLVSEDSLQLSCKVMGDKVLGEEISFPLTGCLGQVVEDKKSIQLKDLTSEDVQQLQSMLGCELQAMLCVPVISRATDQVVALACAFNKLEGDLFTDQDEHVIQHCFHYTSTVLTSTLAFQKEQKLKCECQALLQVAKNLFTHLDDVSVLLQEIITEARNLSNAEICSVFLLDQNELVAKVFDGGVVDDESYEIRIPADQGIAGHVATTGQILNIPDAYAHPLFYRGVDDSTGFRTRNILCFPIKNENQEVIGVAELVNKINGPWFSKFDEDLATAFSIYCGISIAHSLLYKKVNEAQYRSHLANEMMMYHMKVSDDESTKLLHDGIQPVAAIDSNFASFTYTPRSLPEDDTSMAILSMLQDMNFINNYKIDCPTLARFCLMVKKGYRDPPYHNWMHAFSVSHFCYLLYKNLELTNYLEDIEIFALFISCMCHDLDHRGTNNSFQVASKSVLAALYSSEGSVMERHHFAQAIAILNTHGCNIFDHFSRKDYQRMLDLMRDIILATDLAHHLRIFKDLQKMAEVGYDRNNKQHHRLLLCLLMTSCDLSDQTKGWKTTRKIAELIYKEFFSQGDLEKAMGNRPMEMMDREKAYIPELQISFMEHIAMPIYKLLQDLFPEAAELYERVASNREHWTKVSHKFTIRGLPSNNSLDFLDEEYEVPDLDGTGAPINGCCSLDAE
Assay: PDE2 fluorescence polarization (IMAP FP) inhibition assay, rhesus PDE2A3
Type: biochemical, rhesus macaque
Settings: Lab B; read-out: Rhesus PDE2 Ki (nM) Lab B
Procedure: The activity of the compounds in accordance with the present invention as PDE2 inhibitors may be readily determined using a fluorescence polarization (FP) methodology (Huang, W., et al., J. Biomol Screen, 2002, 7: 215).
The PDE2 inhibitory activity of the compounds of the present invention was determined in accordance with the following experimental method. Rhesus PDE2A3 was amplified from rhesus macaque brain cDNA (Biochain Institute, Hayward, Calif.) using primers based on human PDE2A sequence (accession NM_002599.3) where the forward primer containing a Kozak consensus was 5′-[…]-3′ and the reverse primer was 5′-[…]-3′. Amplification with Easy-A High-Fidelity PCR cloning enzyme (Stratagene, La Jolla, Calif.) was 95° C. for 2 minutes followed by thirty three cycles of 95° C. for 40 seconds, 52° C. for 30 seconds, and 72° C. for 2 minutes 48 seconds. Final extension was 72° C. for 7 minutes. The PCR product was TA cloned into pcDNA3.3-TOPO (Invitrogen, Carlsbad, Calif.) according to standard protocol. A consensus sequence was developed from multiple clones and then deposited into GenBank (EU812167). AD293 cells (Stratagene, La Jolla, Calif.) with 70-80% confluency were transiently transfected with rhesus PDE2A3/pcDNA3.3-TOPO using Lipofectamine 2000 according to manufacturer specifications (Invitrogen, Carlsbad, Calif.). Cells were harvested 48 hours post-transfection and lysed by sonication (setting 3, 10×5 sec pulses) in a buffer containing 20 mM HEPES pH 7.4, 1 mM EDTA and Complete Protease Inhibitor Cocktail Tablets (Roche, Indianapolis, Ind.). Lysate was collected by centrifugation at 75,000×g for 20 minutes at 4° C. and supernatant utilized for evaluation of PDE2 activity. The fluorescence polarization assay for cyclic nucleotide phosphodiesterases was performed using an IMAP® FP kit supplied by Molecular Devices, Sunnyvale, Calif. (product #R8139). […] Assays were performed at room temperature in 384-well microtiter plates with an incubation volume of 20.2 μL. Solutions of test compounds were prepared in DMSO and serially diluted with DMSO to yield 8 μL of each of 10 solutions differing by 3-fold in concentration, at 32 serial dilutions per plate. […] 0% of inhibition is determined by using DMSO (1% final concentrations).
A Labcyte Echo 555 (Labcyte, Sunnyvale, Calif.) is used to dispense 200 nL from each well of the titration plate to the 384 well assay plate. Ten microliters of a solution of enzyme (1/2000 final dilution from aliquots; sufficient to produce 20% substrate conversion) was added to the assay plate. Next 10 uL of a separate solution of the substrate FAM-labeled cAMP (50 nM final concentration product # R7506 from Molecular Devices) and the activator cGMP (1 uM final concentration), prepared in the assay buffer (10 mM Tris HCl, pH 7.2, 10 mM MgCl2, 0.05% NaN3 0.01% Tween-20, and 1 mM DTT) was added to the assay plate and shaken to mix. The reaction is allowed to proceed at room temperature for 60 minutes. A binding solution is then made from the kit components, comprised of 80% Solution A, 20% Solution B and binding reagent at a volume of 1/600 the total binding solution. The enzymatic reaction is stopped by addition of 60 μL of the binding solution to each well of the assay plates and the plates are sealed and shaken for 30 seconds. The plate was incubated at room temperature for at least one hour prior to determining the fluorescence polarization (FP). The parallel and perpendicular fluorescence of each well of the plate was measured using a Tecan Genios Pro plate reader (Tecan, Switzerland) or Perkin Elmer EnVision™ plate reader (Waltham, Mass.). Fluorescence polarization (mP) was calculated from the parallel (S) and perpendicular (P) fluorescence of each sample well and the analogous values for the median control well, containing only substrate (So and Po), using the following equation: Polarization(mP)=1000*(S/So−P/Po)/(S/So+P/Po).

| Compound | Ki [nM] |
| --- | --- |
| Cc1nc2c(c(CO)nn2C(c2ccc(C(F)(F)F)cc2)C2(C)CC2)c(=O)[nH]1 (single isomer, unassigned) [Example 25, (S)- or (R)-3-(Hydroxymethyl)-6-methyl-1-((1-methylcyclopropyl)(4-(trifluoromethyl)phenyl)methyl)-1H-pyrazolo[3,4-d]pyrimidin-4(5H)-one] | 160 |
| Cc1nc2c(c(CC(F)(F)F)nn2C(c2ccc(C(F)(F)F)cc2)C(C)(C)C)c(=O)[nH]1 (single isomer, unassigned) [Example 56, (R)- or (S)-1-(2,2-Dimethyl-1-(4-(trifluoromethyl)phenyl)propyl)-6-methyl-3-(2,2,2-trifluoroethyl)-1H-pyrazolo[3,4-d]pyrimidin-4(5H)-one] | 6020 |
| Cc1nc2c(c(CC(F)(F)F)nn2C(c2ccc(C(F)(F)F)cc2)C2(C)CC2)c(=O)[nH]1 (single isomer, unassigned) [Example 58, (R)- or (S)-6-Methyl-1-((1-methylcyclopropyl)(4-(trifluoromethyl)phenyl)methyl)-3-(2,2,2-trifluoroethyl)-1H-pyrazolo[3,4-d]pyrimidin-4(5H)-one] | 1080 |
| Cc1nc2c(c(CO)nn2C(C)c2ccc(S(F)(F)(F)(F)F)cc2)c(=O)[nH]1 (single isomer, unassigned) [Example 76] | 330 |
| Cc1nc2c(c(CO)nn2C(c2ccc(C(F)(F)F)c(F)c2)C(C)C)c(=O)[nH]1 (single isomer, unassigned) [Example 86, (R)- or (S)-1-(1-(3-Fluoro-4-(trifluoromethyl)phenyl)-2-methylpropyl)-3-(hydroxymethyl)-6-methyl-1H-pyrazolo[3,4-d]pyrimidin-4(5H)-one] | 436 |
| Cc1nc2c(c(CO)nn2C(c2ccc(C(F)(F)F)c(F)c2)C(C)(C)C)c(=O)[nH]1 (single isomer, unassigned) [Example 128, (R)- or (S)-1-(1-(3-Fluoro-4-(trifluoromethyl)phenyl)-2,2-dimethylpropyl)-3-(hydroxyl-methyl)-6-methyl-1H-pyrazolo-[3,4-d]pyrimidin-4(5H)-one] | 413 |
| Cc1nc2c(c(C(F)F)nn2C(C)c2ccc(C(F)(F)F)cc2)c(=O)[nH]1 (single isomer, unassigned) [Example 175] | 419 |
| Cc1nc2c(c(CF)nn2C(C)c2ccc(S(F)(F)(F)(F)F)cc2)c(=O)[nH]1 (single isomer, unassigned) [Example 199] | 210 |
| Cc1nc2c(c(CF)nn2C(c2ccc(C(F)(F)F)cc2)C2(C)CC2)c(=O)[nH]1 (single isomer, unassigned) [Example 208, (R)- or (S)-3-(Fluoromethyl)-6-methyl-1-((1-methylcyclopropyl)(4-(trifluoromethyl)phenyl)methyl)-1H-pyrazolo[3,4-d]pyrimidin-4(5H)-one] | 149 |
| Cc1nc2c(c(CF)nn2C(c2ccc(C(F)(F)F)cc2)C(C)(C)C)c(=O)[nH]1 (single isomer, unassigned) [Example 233, (R)- or (S)-1-(2,2-Dimethyl-1-(4-(trifluoromethyl)phenyl)propyl)-3-(fluoromethyl)-6-methyl-1H-pyrazolo[3,4-d]pyrimidin-4(5H)-one] | 678 |
| Cc1nc2c(c(C#N)nn2C(C)c2ccc(C(F)(F)F)cc2)c(=O)[nH]1 (single isomer, unassigned) [Example 253] | 703 |

Results, then the molecule that gave them:

| Ki [nM] | Compound |
| --- | --- |
| ~2590 | CC(c1ccc(C(F)(F)F)cc1)n1nc(CO)c2c(=O)[nH]c(-c3ccco3)nc21 (racemic) [Example 294, 6-Furan-2-yl-3-(hydroxymethyl)-1-{1-[4-(trifluoromethyl)phenyl]ethyl}-1,5-dihydro-4H-pyrazolo[3,4-d]pyrimidin-4-one] |
| > 2970 | CC(c1ccc(C(F)(F)F)cc1)n1nc(CO)c2c(=O)[nH]c(-c3cnn(C)c3)nc21 (racemic) [Example 295, 3-(Hydroxymethyl)-6-(1-methyl-1H-pyrazol-4-yl)-1-{1-[4-(trifluoromethyl)phenyl]ethyl}-1,5-dihydro-4H-pyrazolo[3,4-d]pyrimidin-4-one] |
| 289 | Cc1nc2c(c(CO)nn2C(c2ccc(C(F)(F)F)cc2)C(C)(C)C)c(=O)[nH]1 (single isomer, unassigned) [Example 82, (R)- or (S)-1-(2,2-Dimethyl-1-(4-(trifluoromethyl)phenyl)-propyl)-3-(hydroxymethyl)-6-methyl-1H-pyrazolo[3,4-d]pyrimidin-4(5H)-one] |
| 107 | COc1ccc(Cc2nc3c(c(CF)nn3C(C)c3ccc(C(F)(F)F)cc3)c(=O)[nH]2)cc1 (single isomer, unassigned) [Example 218, (R)- or (S)-3-(Fluoromethyl)-6-(4-methoxybenzyl)-1-(1-(4-(trifluoromethyl)phenyl)ethyl)-1H-pyrazolo[3,4-d]pyrimidin-4(5H)-one] |
| 189 | COc1cccc(Cc2nc3c(c(CF)nn3C(C)c3ccc(C(F)(F)F)cc3)c(=O)[nH]2)c1 (single isomer, unassigned) [Example 220, (R)- or (S)-3-(Fluoromethyl)-6-(3-methoxybenzyl)-1-(1-(4-(trifluoromethyl)phenyl)ethyl)-1H-pyrazolo[3,4-d]pyrimidin-4(5H)-one] |
| 245 | Cc1nc2c(c(CCO)nn2C(C)c2ccc(C(F)(F)F)cc2)c(=O)[nH]1 (single isomer, unassigned) [Example 249] |
| 1210 | Cc1nc2c(c(CS(C)(=O)=O)nn2C(C)c2ccc(C(F)(F)F)cc2)c(=O)[nH]1 (single isomer, unassigned) [Example 272] |
| 757 | Cc1nc2c(c(CS(C)(=O)=O)nn2C(C)c2ccc(C(F)(F)F)cc2)c(=O)[nH]1 (single isomer, unassigned) [Example 273] |
| ~14500 | Cc1nc2c(c(CN)nn2C(C)c2ccc(C(F)(F)F)cc2)c(=O)[nH]1 (single isomer, unassigned) [Example 274] |
| 987 | Cc1nc2c(c(CN)nn2C(C)c2ccc(C(F)(F)F)cc2)c(=O)[nH]1 (single isomer, unassigned) [Example 275] |
| 768 | COCc1nn(C(C)c2ccc(C(F)(F)F)cc2)c2nc(C)[nH]c(=O)c12 (single isomer, unassigned) [Example 278] |
